# Assay results: PubChem BioAssay AID328 (DTP/NCI, 2004)
# “And” between values parts separate entries of the source, which are not always exact repeats. Equal entries are not always repeated. Toxic doses and inconclusive results are not listed.
# Tested on: BDF1 mice, P388 leukemia ip, median survival T/C
# Assay: NCI In Vivo Anticancer Drug Screen. Data for tumor model P388 Leukemia (intraperitoneal) in B6D2F1 (BDF1) mice
# Conditions: endpoint: median survival time, higher = longer survival
# Method in brief: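 Transplantable tumour in mice; compound vs vehicle dosing; survival scored; ratio of treated to control reported.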
# [1] = dose: 50.0 mg/kg/injection, schedule: Q01DX009 (ip), vehicle: Klucel (hydroxypropylcellulose) (HPC)
# [2] = dose: 50.0 mg/kg/injection, schedule: Q01DX009 (ip), vehicle: saline with Tween-80
# [3] = dose: 100.0 mg/kg/injection, schedule: Q01DX009 (ip), vehicle: saline with Tween-80
# [4] = dose: 200.0 mg/kg/injection, schedule: Q01DX009 (ip), vehicle: saline with Tween-80
# [5] = dose: 50.0 mg/kg/injection, schedule: Q01DX009 (ip), vehicle: saline
# [6] = dose: 100.0 mg/kg/injection, schedule: Q01DX009 (ip), vehicle: saline
# [7] = dose: 100.0 mg/kg/injection, schedule: Q04DX003 (ip), vehicle: saline with Tween-80
# [8] = dose: 1.56 mg/kg/injection, schedule: Q01DX009 (ip), vehicle: saline with Tween-80
# [9] = dose: 6.25 mg/kg/injection, schedule: Q01DX009 (ip), vehicle: saline with Tween-80
# [10] = dose: 25.0 mg/kg/injection, schedule: Q01DX009 (ip), vehicle: saline with Tween-80
# [11] = dose: 100.0 mg/kg/injection, schedule: Q01DX009 (ip), vehicle: Klucel (hydroxypropylcellulose) (HPC)
# [12] = dose: 200.0 mg/kg/injection, schedule: Q01DX009 (ip), vehicle: Klucel (hydroxypropylcellulose) (HPC)
# [13] = dose: 200.0 mg/kg/injection, schedule: Q01DX009 (ip), vehicle: saline
# [14] = dose: 3.12 mg/kg/injection, schedule: Q01DX009 (ip), vehicle: saline with Tween-80
# [15] = dose: 200.0 mg/kg/injection, schedule: Q04DX003 (ip), vehicle: saline with Tween-80
compound,measurement,setting,value
OCc1cnc[nH]1,T/C,"dose: 6.25 mg/kg/injection, schedule: Q01DX009 (ip), vehicle: Klucel (hydroxypropylcellulose) (HPC)",96 % of control
same,T/C,"dose: 12.5 mg/kg/injection, schedule: Q01DX009 (ip), vehicle: Klucel (hydroxypropylcellulose) (HPC)",91 % of control
same,T/C,"dose: 25.0 mg/kg/injection, schedule: Q01DX009 (ip), vehicle: Klucel (hydroxypropylcellulose) (HPC)",90 % of control
same,T/C,[1],99 % of control
Cc1ccc2nc(C)n(C)c(=O)c2c1,T/C,[2],98 % of control
same,T/C,[3],91 % of control
same,T/C,[4],92 % of control
CCC1OCCN1C(C)C (stereo not drawn),T/C,[5],108 % of control
same,T/C,[6],108 % of control
CSc1nc(C)c(Br)c(Sc2nc(N)nc3nc[nH]c23)n1,T/C,"dose: 66.0 mg/kg/injection, schedule: Q04DX003 (ip), vehicle: saline with Tween-80",154 % of control
same,T/C,[7],150 % of control
same,T/C,"dose: 150.0 mg/kg/injection, schedule: Q04DX003 (ip), vehicle: saline with Tween-80",150 % of control
N#CSCc1ccc(CSC#N)c(Cl)c1,T/C,[8],118 % of control
same,T/C,[9],100 % of control
Cc1cc(C)c(CCl)cc1CCl,T/C,"dose: 3.0 mg/kg/injection, schedule: Q01DX009 (ip), vehicle: saline with Tween-80",104 % of control
same,T/C,"dose: 4.5 mg/kg/injection, schedule: Q01DX009 (ip), vehicle: saline with Tween-80",116 % of control
same,T/C,[9],118 % of control
same,T/C,"dose: 16.5 mg/kg/injection, schedule: Q01DX009 (ip), vehicle: saline with Tween-80",150 % of control
same,T/C,"dose: 37.5 mg/kg/injection, schedule: Q01DX009 (ip), vehicle: saline with Tween-80",120 % of control
COc1cc(O)c(Cc2ccccc2O)c(O)c1C(=O)CCc1ccccc1,T/C,"dose: 0.5 mg/kg/injection, schedule: Q01DX009 (ip), vehicle: alcohol",100 % of control
same,T/C,"dose: 2.0 mg/kg/injection, schedule: Q01DX009 (ip), vehicle: alcohol",105 % of control
same,T/C,"dose: 4.0 mg/kg/injection, schedule: Q01DX009 (ip), vehicle: alcohol",97 % of control
same,T/C,"dose: 5.9 mg/kg/injection, schedule: Q01DX009 (ip), vehicle: alcohol",119 % of control
same,T/C,"dose: 9.0 mg/kg/injection, schedule: Q01DX009 (ip), vehicle: alcohol",101 % of control
O/N=C1\CCCc2ccc(F)cc21,T/C,[10],100 % of control
same,T/C,[2],106 % of control and 108 % of control
same,T/C,[3],106 % of control
same,T/C,[4],109 % of control and 120 % of control
CN(C)CCC(O)c1c[nH]c2ccccc12 (stereo not drawn),T/C,[3],99 % of control
same,T/C,[4],97 % of control
same,T/C,"dose: 400.0 mg/kg/injection, schedule: Q01DX009 (ip), vehicle: saline with Tween-80",90 % of control
Cc1[nH]c(=O)[nH]c(=O)c1C,T/C,[1],104 % of control
same,T/C,[11],109 % of control
same,T/C,[12],104 % of control
CCOC(=O)CC1=NN=C(N)SC1,T/C,[6],122 % of control
CC1=NC2=NC(CCCC(=O)OCc3ccccc3)=NC3=CC=CC(=N1)N32,T/C,[10],108 % of control
same,T/C,[2],110 % of control
same,T/C,[3],101 % of control
CC(C)CCCC(C)CCO (stereo not drawn),T/C,[5],100 % of control
same,T/C,[6],100 % of control
same,T/C,[13],101 % of control
O=C(CC(c1ccccc1)c1c(O)c2ccccc2oc1=O)c1ccccc1 (stereo not drawn),T/C,"dose: 0.39 mg/kg/injection, schedule: Q01DX009 (ip), vehicle: saline with Tween-80",108 % of control
same,T/C,"dose: 0.78 mg/kg/injection, schedule: Q01DX009 (ip), vehicle: saline with Tween-80",106 % of control
same,T/C,[8],97 % of control
same,T/C,[14],90 % of control
same,T/C,"dose: 12.5 mg/kg/injection, schedule: Q04DX003 (ip), vehicle: saline with Tween-80",120 % of control
same,T/C,"dose: 25.0 mg/kg/injection, schedule: Q04DX003 (ip), vehicle: saline with Tween-80",109 % of control
same,T/C,"dose: 50.0 mg/kg/injection, schedule: Q04DX003 (ip), vehicle: saline with Tween-80",92 % of control
same,T/C,[7],101 % of control
same,T/C,[15],108 % of control
Oc1ccccc1C=NC1CCCCC1.Oc1ccccc1C=NC1CCCCC1.[Cu+2],T/C,"dose: 100.0 mg/kg/injection, schedule: Q01DX001 (ip), vehicle: saline sonified",90 % of control
same,T/C,"dose: 200.0 mg/kg/injection, schedule: Q01DX001 (ip), vehicle: saline sonified",90 % of control
same,T/C,"dose: 400.0 mg/kg/injection, schedule: Q01DX001 (ip), vehicle: saline sonified",109 % of control
O=[N+]([O-])c1c(Cl)cccc1-c1c[nH]cc1Cl,T/C,[11],95 % of control
same,T/C,[12],95 % of control
same,T/C,"dose: 400.0 mg/kg/injection, schedule: Q01DX009 (ip), vehicle: Klucel (hydroxypropylcellulose) (HPC)",86 % of control
COc1ccc(C(=O)CC(c2ccc(OC)c(OC)c2)c2c(O)c3ccccc3oc2=O)cc1OC (stereo not drawn),T/C,"dose: 12.5 mg/kg/injection, schedule: Q01DX009 (ip), vehicle: saline",101 % of control
same,T/C,"dose: 25.0 mg/kg/injection, schedule: Q01DX009 (ip), vehicle: saline",111 % of control
same,T/C,[5],101 % of control
same,T/C,[6],109 % of control
same,T/C,[13],93 % of control
O=S1(=O)CCN(C2CCCCCCC2)CC1,T/C,[1],115 % of control
same,T/C,[11],116 % of control
same,T/C,[12],104 % of control
O=C(/C=C/c1ccccc1)N1CCOCC1,T/C,"dose: 50.0 mg/kg/injection, schedule: Q04DX003 (ip), vehicle: saline",95 % of control
same,T/C,"dose: 100.0 mg/kg/injection, schedule: Q04DX003 (ip), vehicle: saline",95 % of control
CCC[CH2][Sn]([CH2]CCC)([CH2]CCC)[S]C(=S)NCCNC(=S)[S][Sn]([CH2]CCC)([CH2]CCC)[CH2]CCC,T/C,"dose: 0.78 mg/kg/injection, schedule: Q01DX010 (ip), vehicle: saline",113 % of control
same,T/C,"dose: 1.56 mg/kg/injection, schedule: Q01DX010 (ip), vehicle: saline",109 % of control
same,T/C,"dose: 3.13 mg/kg/injection, schedule: Q01DX010 (ip), vehicle: saline",109 % of control
CN1CCN(C)P1OCC(F)(F)F,T/C,"dose: 25.0 mg/kg/injection, schedule: Q01DX005 (ip), vehicle: saline",87 % of control
same,T/C,"dose: 50.0 mg/kg/injection, schedule: Q01DX005 (ip), vehicle: saline",100 % of control
same,T/C,"dose: 100.0 mg/kg/injection, schedule: Q01DX005 (ip), vehicle: saline",87 % of control
CC(=O)C(C)[P+](c1ccccc1)(c1ccccc1)c1ccccc1 (stereo not drawn),T/C,"dose: 2.0 mg/kg/injection, schedule: Q01DX009 (ip), vehicle: water",95 % of control
same,T/C,"dose: 4.0 mg/kg/injection, schedule: Q01DX009 (ip), vehicle: water",100 % of control
same,T/C,"dose: 8.0 mg/kg/injection, schedule: Q01DX009 (ip), vehicle: water",93 % of control
same,T/C,"dose: 12.5 mg/kg/injection, schedule: Q01DX009 (ip), vehicle: water",96 % of control
same,T/C,"dose: 16.0 mg/kg/injection, schedule: Q01DX009 (ip), vehicle: water",103 % of control
same,T/C,"dose: 25.0 mg/kg/injection, schedule: Q01DX009 (ip), vehicle: water",91 % of control
CCN1c2ccccc2CC(CCN(C)Cc2ccccc2)(C(N)=O)c2ccccc21 (stereo not drawn),T/C,[3],101 % of control
Oc1c(-c2ccccc2)cc(-[n+]2c(-c3ccccc3)cc(-c3ccccc3)cc2-c2ccccc2)cc1-c1ccccc1,T/C,"dose: 0.38 mg/kg/injection, schedule: Q01DX009 (ip), vehicle: saline with Tween-80",100 % of control
same,T/C,"dose: 0.75 mg/kg/injection, schedule: Q01DX009 (ip), vehicle: saline with Tween-80",108 % of control
same,T/C,"dose: 1.5 mg/kg/injection, schedule: Q01DX009 (ip), vehicle: saline with Tween-80",108 % of control
Cn1nnn2c(-c3ccccc3)nnc12,T/C,[10],115 % of control
same,T/C,[2],110 % of control
same,T/C,[3],95 % of control
Br[CH2][Sn]([Br])([Br])[CH2]Br,T/C,[14],111 % of control
same,T/C,[9],98 % of control
same,T/C,"dose: 12.5 mg/kg/injection, schedule: Q01DX009 (ip), vehicle: saline with Tween-80",115 % of control
CCCCc1ccc2nc(NC(=O)OC)[nH]c2c1,T/C,"dose: 100.0 mg/kg/injection, schedule: Q04DX003 (ip), vehicle: other",174 % of control
same,T/C,[7],169 % of control
same,T/C,"dose: 200.0 mg/kg/injection, schedule: Q04DX003 (ip), vehicle: Klucel (hydroxypropylcellulose) (HPC)",160 % of control
same,T/C,"dose: 200.0 mg/kg/injection, schedule: Q04DX003 (ip), vehicle: other",93 % of control
same,T/C,[15],96 % of control
